For assay [1], the target named is T1, human KOR (Homo sapiens, UniProt P41145). Briefly: biochemical. The assay is classed as biochemical.
Target sequence in this assay (P41145 whole entry): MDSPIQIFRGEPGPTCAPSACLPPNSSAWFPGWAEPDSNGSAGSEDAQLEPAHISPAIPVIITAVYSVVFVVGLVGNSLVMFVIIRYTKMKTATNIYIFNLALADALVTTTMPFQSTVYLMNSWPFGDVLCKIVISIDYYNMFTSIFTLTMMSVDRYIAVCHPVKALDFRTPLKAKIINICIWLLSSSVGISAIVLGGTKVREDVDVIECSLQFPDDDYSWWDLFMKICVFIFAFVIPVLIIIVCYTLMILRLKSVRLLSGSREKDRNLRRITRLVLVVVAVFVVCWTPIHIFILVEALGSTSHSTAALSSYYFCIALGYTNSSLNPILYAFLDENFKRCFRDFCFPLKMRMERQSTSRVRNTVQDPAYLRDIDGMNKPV
Target sequence in this assay (P63096 2-354 partner limits assumed): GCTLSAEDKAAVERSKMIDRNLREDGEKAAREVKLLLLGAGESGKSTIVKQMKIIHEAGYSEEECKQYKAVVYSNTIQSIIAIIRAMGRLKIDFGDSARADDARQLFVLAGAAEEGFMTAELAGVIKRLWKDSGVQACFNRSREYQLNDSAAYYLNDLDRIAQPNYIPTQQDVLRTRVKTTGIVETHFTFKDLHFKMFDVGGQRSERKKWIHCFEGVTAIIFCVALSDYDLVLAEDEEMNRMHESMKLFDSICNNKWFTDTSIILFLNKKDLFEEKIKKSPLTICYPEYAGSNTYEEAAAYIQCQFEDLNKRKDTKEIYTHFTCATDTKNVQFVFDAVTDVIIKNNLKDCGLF
Target sequence in this assay (P62873 2-340 partner limits assumed): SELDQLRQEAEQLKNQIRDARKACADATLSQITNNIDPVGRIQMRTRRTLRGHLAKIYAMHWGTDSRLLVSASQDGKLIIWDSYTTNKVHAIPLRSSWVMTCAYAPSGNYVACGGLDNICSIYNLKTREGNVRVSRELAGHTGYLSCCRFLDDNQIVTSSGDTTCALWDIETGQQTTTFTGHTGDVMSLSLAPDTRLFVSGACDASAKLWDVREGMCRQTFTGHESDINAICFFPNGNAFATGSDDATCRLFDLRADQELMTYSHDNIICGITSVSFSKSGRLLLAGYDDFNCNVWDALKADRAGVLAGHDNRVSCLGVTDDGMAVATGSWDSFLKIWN
Target sequence in this assay (P59768 2-68 partner limits assumed): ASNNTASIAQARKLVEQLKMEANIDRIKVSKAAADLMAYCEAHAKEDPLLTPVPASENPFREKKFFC
For a further assay, the system named is KOR. As to conditions: no reference given; cited from earlier work.
The conditions of assay [2]: cited from earlier work.
The target in assay [3] is T2, μ-opioid receptor (MOR) (Homo sapiens, UniProt P35372). As to conditions: cited from earlier work.
In assay [4] the target is T1, human KOR. The assay is classed as cell-based.
Target sequence in this assay (P41145 whole entry): as the sequence (P41145 whole entry) above
For assay [5], the target named is mKOR-tdTomato fusion protein in Neuro2A cells (Mus musculus, UniProt P33534). Briefly: KOR internalization in N2A-mKOR-tdT cells, fluorescence microscopy. In kind it is cell-based.
In assay [6] the target is T2, μ-opioid receptor (MOR). Kind of assay: Affinity for the μ-opioid receptor. The assay is classed as binding. Conditions: mean ± SD; no method described.
A further assay deals with κ-opioid receptor (KOR) (Homo sapiens, UniProt P41145). Kind of assay: biochemical. The assay is classed as binding.
κ-opioid receptor (KOR), sequence (P41145 whole entry): as above

mKOR-tdTomato fusion protein in Neuro2A cells, sequence (P33534 whole entry, the tested form may be a part): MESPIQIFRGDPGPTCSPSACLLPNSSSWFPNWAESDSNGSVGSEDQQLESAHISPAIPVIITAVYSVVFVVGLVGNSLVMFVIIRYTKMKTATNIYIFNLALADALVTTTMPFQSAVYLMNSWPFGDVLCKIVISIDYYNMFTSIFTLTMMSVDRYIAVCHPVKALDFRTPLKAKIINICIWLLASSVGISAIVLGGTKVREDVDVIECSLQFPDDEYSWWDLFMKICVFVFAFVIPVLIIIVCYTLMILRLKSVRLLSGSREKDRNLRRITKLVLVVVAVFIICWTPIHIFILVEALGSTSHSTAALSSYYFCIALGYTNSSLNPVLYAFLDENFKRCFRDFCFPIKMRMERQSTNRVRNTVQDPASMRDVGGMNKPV
T2 sequence (P35372 whole entry, species assumed): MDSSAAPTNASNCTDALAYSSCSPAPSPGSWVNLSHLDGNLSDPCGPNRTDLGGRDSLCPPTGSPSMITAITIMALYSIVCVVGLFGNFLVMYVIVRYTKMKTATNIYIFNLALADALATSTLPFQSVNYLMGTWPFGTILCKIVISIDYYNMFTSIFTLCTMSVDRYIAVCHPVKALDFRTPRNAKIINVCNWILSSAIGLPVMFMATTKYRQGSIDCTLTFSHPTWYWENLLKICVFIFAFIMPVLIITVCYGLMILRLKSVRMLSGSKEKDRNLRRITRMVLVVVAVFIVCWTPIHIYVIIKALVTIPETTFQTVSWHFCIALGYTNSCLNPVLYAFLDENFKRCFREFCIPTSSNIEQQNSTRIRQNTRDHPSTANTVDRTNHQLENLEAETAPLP

Turning to `COC(=O)[C@@H]1C[C@H](OC(C)=O)C(=O)[C@H]2[C@@]1(C)CC[C@H]1C(=O)O[C@H](c3ccoc3)C[C@]21C` [salvinorin A], at human KOR [1], the “agonist character, G protein activation pathway” value is “full agonist” and the “concentration giving full activation of the receptor” value is on record as “above 1 μM”.
Turning to `CC(C)[C@@H](CN1CC[C@@](C)(c2cccc(O)c2)[C@@H](C)C1)NC(=O)[C@H]1Cc2ccc(O)cc2CN1` [JDTic], the “agonistic activity at KOR” value in the assay with KOR is given as “no agonistic activity”.
As to `Oc1ccc2c(c1)[C@@]13CCCC[C@@]1(O)[C@@H](C2)N(CC1CCC1)CC3` [butorphanol], in assay [2] (clinical trial for perioperative pain management), the “analgesic potency relative to morphine” value is given as approximately 6 times. Further, the “potency relative to morphine” value in assay [2] (discussion statement, no reference given) is 5–7 fold. Besides, on μ-opioid receptor (MOR) [3], the “agonist character at MOR” value is on record as “partial μ-opioid receptor (MOR) agonist”. In addition, the “agonist character, β-arrestin recruitment pathway” value at human KOR [4] was “full agonist”. On human KOR [1], the EC50 amounted to 2.8 nM; the “agonist character, G protein activation pathway” value is reported as “partial, high affinity agonist”; the “maximal G protein activation relative to salvinorin A” value is “about 50%”. The KOR internalization result in assay [5] (butorphanol 0.1 μM to 8 μM, from 5 min) is “KOR internalization was observed”. At μ-opioid receptor (MOR) [6], the “affinity for the μ-opioid receptor” value amounted to 2.4 ± 1.2 nM. In addition, at κ-opioid receptor (KOR), the affinity, expressed as Kd, was 0.1 ± 0.02 nM; affinity was put at a Ki of 0.1 ± 0.02 nM; the “affinity for KOR relative to μ-opioid receptor” value is given as “about twenty-fold”.
Take `C[C@@]12CCCCC[C@@H](Cc3ccc(O)cc31)[C@@H]2N` [dezocine]: the “effect on butorphanol-induced KOR internalization” value in assay [5] (2 μM dezocine co-incubated with 0.4 μM butorphanol for 30 min) is “abolish the KOR internalization”. Besides, the inhibition constant Ki on κ-opioid receptor (KOR) stood at 56 ± 2 nM.

(Values after PMC7668422 (Anesthesia and analgesia, 2020).)
